This is an account of results in patent US20170007615A1, “Antibacterial Compounds” (priority 2014, published 2017).

For one assay, the system named is E. coli (NDM-1; CTX-M15). In words: Septicaemia infection model, survival. Particulars: two doses.
The subject of another assay is S. aureus (ATCC 29213). Put plainly: Antibacterial activity (MIC), Gram-positive type strain. The format is cell-based, Staphylococcus aureus. Particulars: Staphylococcus aureus, ATCC29213; Table 13.
The subject of the next assay is E. faecalis (ATCC 29212). Described as above. Particulars: Enterococcus faecalis, ATCC29212; Table 13. The format is cell-based, Enteroccocus faecalis.
Assay [1] relates to H. influenzae (ATCC 49247). Put plainly: Antibacterial activity (MIC), Gram-negative type strain. Type of assay: cell-based, Haemophilus influenzae. Conditions: Haemophilus influenzae, ATCC49247; Table 13.
Assay [2] deals with N. gonorrheae (ATCC 49226). The assay is described as above. The format is cell-based, Neisseria gonorrhoeae. Particulars: Neisseria gonorrhoeae, ATCC49226; Table 13.
Assay [3] relates to E. coli (ATCC 25922). Particulars: for MIC of Compound (μg/ml) in the presence of PMBN (128 μg/ml): Table 1, (b) No effect.
In assay [4] the test system is E. coli (ATCC 25922). In words: microbe, parasite or virus in culture. Particulars: Escherichia coli, ATCC25922, read-out: MIC Compound alone, Table 1.
The next assay deals with B. cepacia (ATCC 25416). In words: Antibacterial activity (MIC), alone and with colistin. The format is cell-based, Burkholderia cepacia. Particulars: Table 8; (a) No measurable antibacterial activity.
The subject of assay [5] is K. pneumonia colistin-resistant strains. Put plainly: microbe, parasite or virus in culture. The format is cell-based. Conditions: K. pneumonia strains raised by selection with 2 or 4 μg/mL of colistin on MH agar.
Assay [6] has as its system E. coli colistin-resistant strains. In words: microbe, parasite or virus in culture. The format is cell-based. Conditions: E. coli strains raised by selection with 2 or 4 μg/mL of colistin on MH agar.
In assay [7] the test system is A. baumannii colistin-resistant strains. In words: microbe, parasite or virus in culture. The format is cell-based. Particulars: A. baumannii strains raised by selection with 2 or 4 μg/mL of colistin on MH agar.
Assay [8] has as its system A. baumannii (ATCC 19606). Particulars: for MIC of Compound (μg/ml) in the presence of PMBN (128 μg/ml): Table 4.
For assay [9], the system named is A. baumannii (ATCC 19606). In words: microbe, parasite or virus in culture. Particulars: Acinetobacter baumannii, ATCC19606, read-out: MIC Compound alone.
For assay [10], the system named is P. aeruginosa (ATCC 27853). Conditions: ATCC 27853.
Assay [11] deals with F. philomiragia (ATCC 25015). Particulars: Table 9; (a) No measurable antibacterial activity.

≈ marks a conversion by molar mass, not a printed value. Marks after values point to notes of the source that are not given here. Positions of bridges follow the written chain, without caps; N, C: chain ends. Non-standard residues stand in square brackets, D forms with d. Residues, ends and D or L forms follow the SMILES beside them. Dab = NCC[C@H](N)C(=O)O

As for `CCNC(=O)Nc1nc2cc(-c3cnc([C@@H](C)OP(=O)(O)O)nc3)cc(-c3ccccn3)c2s1` [Example 152 of WO2013/138860, [(1R)-1-[5-[2-(ethylcarbamoylamino)-7-(2-pyridyl)-1,3-benzothiazol-5-yl]pyrimidin-2-yl]ethyl] dihydrogen phosphate], in the assay with E. coli (NDM-1; CTX-M15) (100 mg/kg IV alone), the “survival at the end of 5 days” value is recorded as “No mice survived”.

As to `CCNC(=O)Nc1nc2cc(-c3cnc(NS(=O)(=O)N(C)CCO)nc3)cc(-c3ccc(C)cn3)c2s1` [Compound A-15, 1-Ethyl-3-[5-[2-[[2-hydroxyethyl(methyl)sulfamoyl]amino]pyrimidin-5-yl]-7-(5-methyl-2-pyridyl)-1,3-benzothiazol-2-yl]urea], the MIC in the assay with S. aureus (ATCC 29213) was 0.12 µg/mL (≈ 0.221 µM); with E. faecalis (ATCC 29212), 0.015 µg/mL (≈ 0.0276 µM); in assay [1], 0.03 µg/mL (≈ 0.0553 µM); in assay [2], no more than 0.008 µg/mL; in the assay on E. coli (ATCC 25922) [4], 4 µg/mL (≈ 7.37 µM). Also, the “MIC of Compound (μg/ml) in the presence of PMBN (128 μg/ml)” value (“MIC of Compound (μg/ml) … (128 μg/ml)” for short) in the assay on E. coli (ATCC 25922) [3] turned out to be 0.03 µg/mL.

As for colistin [reference compound], the MIC colistin alone against B. cepacia (ATCC 25416) is >64^(a) μg/ml; in the assay on E. coli (ATCC 25922) [3] (Table 2), 2 µg/mL; against E. cloaceae (ATCC 13047) (Table 7, (a) No measurable antibacterial activity), >64^(a) μg/ml. For the same molecule, the “MIC (colistin)” value in [5], in [6] and in assay [7] was “^(a)Raised by selection with 2 or 4 μg/mL of colistin on MH agar: MIC (colistin) = 16-32 μg/mL” in each case. In the assay on E. coli (ATCC 25922) [3] (Table 12), the “MIC Compound alone” value was determined as 4 µg/mL. The “MIC of Compound (μg/ml) in the presence of PMBN (32 μg/ml)” value with E. coli (ATCC 25922) [3] (Table 12, (b) No significant effect) is reported as 4^(b) μg/ml.

As to `CCNC(=O)Nc1nc2cc(-c3cnc(C(C)(O)CO)nc3)cc(-c3ncc(C)cn3)c2s1` (centres unmarked) [Compound A-8, 1-[5-[2-(1,2-Dihydroxy-1-methyl-ethyl)pyrimidin-5-yl]-7-(5-methylpyrimidin-2-yl)-1,3-benzothiazol-2-yl]-3-ethyl-urea], the “MIC of Compound (μg/ml) … (128 μg/ml)” value in the assay on E. coli (ATCC 25922) [3] was 0.06 µg/mL; in assay [8] it was 0.25 µg/mL. Also, the MIC amounted to 4 µg/mL (≈ 8.59 µM) in the assay with E. coli (ATCC 25922) [4] and 2 µg/mL (≈ 4.3 µM) in assay [9].

Turning to `CCNC(=O)Nc1nc2cc(-c3cnc(NS(=O)(=O)c4ccccc4C(=O)O)nc3)cc(-c3ccccn3)c2s1` [Compound A-10, 2-[[5-[2-(Ethylcarbamoylamino)-7-(2-pyridyl)-1,3-benzothiazol-5-yl]pyrimidin-2-yl]sulfamoyl]benzoic acid], the MIC was 2 µg/mL (≈ 3.47 µM) against S. aureus (ATCC 29213); 0.5 µg/mL (≈ 0.869 µM) against E. faecalis (ATCC 29212); 4 µg/mL (≈ 6.95 µM) in assay [1]; 0.25 µg/mL (≈ 0.434 µM) in assay [2]; greater than 64 µg/mL in the assay on E. coli (ATCC 25922) [4]. In addition, the “MIC of Compound (μg/ml) … (128 μg/ml)” value in the assay with E. coli (ATCC 25922) [3] worked out at 4 µg/mL.

As for `CCCS(=O)(=O)Nc1ncc(-c2cc(-c3ccc(C)cn3)c3sc(NC(=O)NCC)nc3c2)cn1` [Compound A-12, 1-Ethyl-3-[7-(5-methyl-2-pyridyl)-5-[2-(propylsulfonylamino)pyrimidin-5-yl]-1,3-benzothiazol-2-yl]urea], the MIC was no more than 0.002 µg/mL in the assay with S. aureus (ATCC 29213); no more than 0.008 µg/mL in the assay with E. faecalis (ATCC 29212); 0.015 µg/mL (≈ 0.0293 µM) in [1]; no more than 0.008 µg/mL in assay [2]; 2 µg/mL (≈ 3.91 µM) in the assay with E. coli (ATCC 25922) [4]. Further, the “MIC of Compound (μg/ml) … (128 μg/ml)” value in the assay with E. coli (ATCC 25922) [3] was 0.008 µg/mL.

Turning to `CCNC(=O)Nc1nc2cc(-c3cnc(NS(=O)(=O)N4CCCC4)nc3)cc(-c3ccc(C)cn3)c2s1` [Compound A-11, 1-Ethyl-3-[7-(5-methyl-2-pyridyl)-5-[2-(pyrrolidin-1-ylsulfonylamino)pyrimidin-5-yl]-1,3-benzothiazol-2-yl]urea], the MIC in the assay on S. aureus (ATCC 29213) was 0.004 µg/mL (≈ 0.00743 µM); with E. faecalis (ATCC 29212), no more than 0.008 µg/mL; in [1] it was 0.06 µg/mL (≈ 0.111 µM); in [2] it was 0.015 µg/mL (≈ 0.0278 µM); in the assay with E. coli (ATCC 25922) [4], 2 µg/mL (≈ 3.71 µM). Further, in the assay with E. coli (ATCC 25922) [3], the “MIC of Compound (μg/ml) … (128 μg/ml)” value is 0.015 µg/mL.

As for `CC(C)C[C@@H]1NC(=O)[C@@H](Cc2ccccc2)NC(=O)[C@H](CCN)NC(=O)[C@@H](NC(=O)[C@H](CCN)NC(=O)[C@@H](N)[C@@H](C)O)CCNC(=O)[C@H]([C@@H](C)O)NC(=O)[C@H](CCN)NC(=O)[C@H](CCN)NC1=O` [PMBN, Polymyxin B nonapeptide, reference compound] (H-T[Dab][Dab][Dab][dF]L[Dab][Dab]T; lactam 3-C (inferred); N-terminus assumed), the “MIC PMBN alone” value against E. coli (ATCC 25922) [3] (ATCC 25922) is >128^(a) μg/ml; in [8] (ATCC 19606), >128^(a) μg/ml; in assay [10], >128^(a) μg/ml; in the assay with E. cloaceae (ATCC 13047) (ATCC 13047), >128^(a) μg/ml; in assay [11], >32^(a) μg/ml. Further, the “survival at the end of 5 days” value in the assay on E. coli (NDM-1; CTX-M15) (PMBN 50 mg/kg SC alone) is “No mice survived”.

As to `CCNC(=O)Nc1nc2cc(-c3ccn(C)c(=O)c3)cc(-c3ccccn3)c2s1` [Example 51 (WO2007/148093)], the “MIC of Compound (μg/ml) … (128 μg/ml)” value in the assay on E. coli (ATCC 25922) [3] worked out at 0.06 µg/mL; in [8] it was 0.5 µg/mL. The figures for the MIC (in the assay with E. coli (ATCC 25922) [4]; in [9]) were 16 µg/mL (≈ 39.5 µM) and 4 µg/mL (≈ 9.86 µM), respectively.

On to `CCNC(=O)Nc1nc2cc(-c3cnc(NS(=O)(=O)C(C)(C)CO)nc3)cc(-c3ccc(C)cn3)c2s1` [Compound A-14, 1-Ethyl-3-[5-[2-[(2-hydroxy-1,1-dimethyl-ethyl)sulfonylamino]pyrimidin-5-yl]-7-(5-methyl-2-pyridyl)-1,3-benzothiazol-2-yl]urea], for which the MIC in the assay with S. aureus (ATCC 29213) was 0.03 µg/mL (≈ 0.0554 µM); against E. faecalis (ATCC 29212) it was no more than 0.008 µg/mL; in assay [1], 0.015 µg/mL (≈ 0.0277 µM); in assay [2] it was 0.015 µg/mL (≈ 0.0277 µM); in the assay on E. coli (ATCC 25922) [4] it was 4 µg/mL (≈ 7.38 µM). In addition, the “MIC of Compound (μg/ml) … (128 μg/ml)” value in the assay on E. coli (ATCC 25922) [3] turned out to be 0.03 µg/mL.

For the molecule `CCNC(=O)Nc1nc2cc(-c3cnc(NS(=O)(=O)C4CCCC4)nc3)cc(-c3ccc(C)cn3)c2s1` [Compound A-21, 1-[5-[2-(cyclopentylsulfonylamino)pyrimidin-5-yl]-7-(5-methyl-2-pyridyl)-1,3-benzothiazol-2-yl]-3-ethyl-urea], the MIC against S. aureus (ATCC 29213) was no more than 0.002 µg/mL; against E. faecalis (ATCC 29212) it was no more than 0.008 µg/mL; in assay [1], 0.03 µg/mL (≈ 0.0558 µM); in assay [2], no more than 0.008 µg/mL; in [9], 1 µg/mL (≈ 1.86 µM). In addition, the “MIC of Compound (μg/ml) … (128 μg/ml)” value in assay [8] stood at 0.03 µg/mL.

In the case of `CCNC(=O)Nc1nc2cc(-c3cnc(NS(=O)(=O)NCC)nc3)cc(-c3ccccn3)c2s1` [Compound A-37, 1-ethyl-3-[5-[2-(ethylsulfamoylamino)pyrimidin-5-yl]-7-(2-pyridyl)-1,3-benzothiazol-2-yl]urea], the MIC against S. aureus (ATCC 29213) amounted to 0.25 µg/mL (≈ 0.501 µM); against E. faecalis (ATCC 29212) it was 0.015 µg/mL (≈ 0.0301 µM); in assay [1], 0.12 µg/mL (≈ 0.241 µM); in assay [2] it was 0.03 µg/mL (≈ 0.0602 µM).

Consider `CCNC(=O)Nc1nc2cc(-c3cnc(NS(=O)(=O)CC)nc3)cc(-c3ccccn3)c2s1` [Compound A-36, N-(5-(2-(3-ethylureido)-7-(pyridin-2-yl)benzo[d]thiazol-5-yl)pyrimidin-2-yl)ethanesulfonamide], for which the MIC was 0.25 µg/mL (≈ 0.517 µM) in the assay with S. aureus (ATCC 29213), no more than 0.008 µg/mL against E. faecalis (ATCC 29212), 0.03 µg/mL (≈ 0.062 µM) in assay [1] and no more than 0.008 µg/mL in [2].

Regarding `CCNC(=O)Nc1nc2cc(-c3cnc(NS(=O)(=O)N4CC(OC)C4)nc3)cc(-c3ccc(C)cn3)c2s1` [Compound A-50, N-(5-(2-(3-ethylureido)-7-(5-methylpyridin-2-yl)benzo[d]thiazol-5-yl)pyrimidin-2-yl)-3-methoxyazetidine-1-sulfonamide], the MIC against S. aureus (ATCC 29213) is 0.5 µg/mL (≈ 0.901 µM); in the assay on E. faecalis (ATCC 29212) it was 0.03 µg/mL (≈ 0.0541 µM); in assay [1] it was 4 µg/mL (≈ 7.21 µM); in assay [2] it was 0.25 µg/mL (≈ 0.451 µM).
